# Source: PubChem BioAssay (NCI)
#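 The compound was tested at five concentrations on cells cultured in 96-well plates, with a 48-hour exposure period. Abbreviation: GI50, concentration required for 50% inhibition of growth. TGI is the concentration that stops growth completely.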
# Key:
# Test in all cases: inhibition of tumour cell growth, NCI panel, 48 h
# [1] = system: T-47D breast
# [2] = system: COLO 205 colon
# [3] = system: HOP-92 NSCLC
# [4] = system: RPMI-8226 leukemia
# [5] = system: SF-295 CNS
# [6] = system: UO-31 renal
# [7] = system: K-562 leukemia
# [8] = system: NCI-H226 lung
# [9] = system: IGROV1 ovarian
# [10] = system: DU-145 prostate
# [11] = system: CCRF-CEM leukemia
# [12] = system: RXF 393 renal
# [13] = system: U251 CNS
# [14] = system: KM12 colon
# [15] = system: HCT-15 colon
# [16] = system: HT29 colon
# [17] = system: SR leukemia
# [18] = system: SNB-75 CNS
# [19] = system: SK-MEL-2 melanoma
# [20] = system: ACHN renal
# [21] = system: MCF7 breast
# [22] = system: A498 renal
# [23] = system: HL-60(TB) leukemia
# [24] = system: NCI-H460 lung
# [25] = system: MDA-MB-231 breast
# [26] = system: NCI-H23 lung
# [27] = system: OVCAR-4 ovarian
# [28] = system: NCI/ADR-RES ovarian
smiles,measurement,setting,value
COc1ccc2c(c1)c(-c1nonc1-c1cn(C)c3ccccc13)cn2C,TGI,[1],> 100000 nM
same,GI50,[2],479 nM
same,TGI,[2],> 100000 nM
same,GI50,[3],890 nM
same,TGI,[3],> 100000 nM
same,GI50,[4],634 nM
same,TGI,[4],> 100000 nM
same,GI50,[5],343 nM
same,TGI,[5],> 100000 nM
same,GI50,[6],430 nM
same,TGI,[6],> 100000 nM
same,GI50,[7],300 nM
same,TGI,[7],> 100000 nM
same,GI50,[8],998 nM
same,TGI,[8],> 100000 nM
same,GI50,[9],577 nM
same,TGI,[9],> 100000 nM
same,GI50,[10],528 nM
same,TGI,[10],> 100000 nM
same,GI50,[11],374 nM
same,TGI,[11],> 100000 nM
same,GI50,[12],270 nM
same,TGI,[12],1030 nM
same,GI50,[13],440 nM
same,TGI,[13],> 100000 nM
same,GI50,[14],414 nM
same,TGI,[14],> 100000 nM
same,GI50,[15],456 nM
same,TGI,[15],> 100000 nM
same,GI50,[16],357 nM
same,TGI,[16],> 100000 nM
same,GI50,[17],313 nM
same,TGI,[17],> 100000 nM
same,GI50,[18],198 nM
same,TGI,[18],671 nM
same,GI50,[19],554 nM
same,TGI,[19],> 100000 nM
same,GI50,[20],621 nM
same,TGI,[20],> 100000 nM
same,GI50,[21],364 nM
same,TGI,[21],> 100000 nM
same,GI50,[22],332 nM
same,TGI,[22],988 nM
same,GI50,[23],340 nM
same,GI50,[24],403 nM
same,TGI,[24],> 100000 nM
same,GI50,[25],877 nM
same,TGI,[25],> 100000 nM
same,GI50,[26],996 nM
same,TGI,[26],> 100000 nM
same,GI50,[27],1680 nM
same,TGI,[27],> 100000 nM
same,GI50,[28],408 nM
same,TGI,[28],> 100000 nM
